Values quoted from earlier work, collected in US20260174718A1, “MODULATORS OF mTORC1 ACTIVITY AND USES THEREOF” (Navitor Pharmaceuticals, Inc., priority 2022, published 2026).

System: mice
Settings: ketamine 2.5 mg/kg, intraperitoneally

## CNC1(c2ccccc2Cl)CCCCC1=O (stereo not shown) [ketamine]
  effect of ketamine challenge alone in the forced swim test: ineffective
